Tests used:
kochia [1] = test: Test A pre-/postemergence herbicide test; format: in vivo, Kochia scoparia
Summary of the method: (§1)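 Greenhouse pot test with pre- and postemergence application of surfactant-containing solvent formulations. Postemergence plants were 2–10 cm, one- to two-leaf stage. Response scored visually after ~10 days, 0 (no effect) to 100 (complete control).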

corn = test: Test A pre-/postemergence herbicide test; format: in vivo, Zea mays; settings: Postemergence
Summary of the method: as §1

ryegrass, Italian = test: Test C pre-/postemergence herbicide test; format: in vivo, Lolium multiflorum
Summary of the method: (§2)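 Greenhouse pots; formulation = non-phytotoxic solvent mix + surfactant. PRE onto seeds in loam:sand; POST at 1–4 leaves (2–18 cm) in peat moss/vermiculite medium. Read-out: visual % control vs untreated, day 13–15.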

johnsongrass = test: Test C pre-/postemergence herbicide test; format: in vivo, Sorghum halepense
Summary of the method: as §2

morningglory = test: Test C pre-/postemergence herbicide test; format: in vivo, Ipomoea coccinea
Summary of the method: as §2

barnyardgrass = test: Test C pre-/postemergence herbicide test; format: in vivo, Echinochloa crus-galli
Summary of the method: as §2

kochia [2] = test: Test C pre-/postemergence herbicide test; format: in vivo, Kochia scoparia; settings: Postemergence
Summary of the method: as §2

chickweed = test: Test C postemergence herbicide test; format: in vivo, Stellaria media
Summary of the method: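 Response is scored visually on a 0–100 scale (100 = complete control) relative to untreated controls, 13 to 15 days after treatment. Plants were sprayed postemergence at the 1- to 4-leaf stage (2 to 18 cm tall) and kept in a greenhouse.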

[3] = 125 g ai/ha, visual rating, 0 to 100 scale, 0 no effect, 100 complete control, approximately 10 days, preemergence
[4] = Postemergence, 125 g ai/ha, 0 to 100 scale, 0 is no effect, 100 is complete control
[5] = preemergence, 500 g ai/ha, 0 to 100 scale, 0 is no effect and 100 is complete control
[6] = 125 g ai/ha, 0 to 100 scale, 0 is no effect, 100 is complete control
[7] = Postemergence, 31 g ai/ha, scale 0 to 100 (0 no effect, 100 complete control)
[8] = Postemergence, 62 g ai/ha, scale 0 (no effect) to 100 (complete control)
[9] = Postemergence, 125 g ai/ha, scale 0 to 100 (0 no effect, 100 complete control)
[10] = Postemergence, 250 g ai/ha, scale 0 to 100 (0 no effect, 100 complete control)
[11] = Preemergence, 31 g ai/ha, scale 0 to 100, 0 is no effect and 100 is complete control
[12] = Preemergence, 62 g ai/ha, scale 0 to 100 (0 no effect, 100 complete control)
[13] = Preemergence, 125 g ai/ha, scale 0 to 100 (0 no effect, 100 complete control)
[14] = Preemergence, 62 g ai/ha, scale 0 to 100
[15] = 31 g ai/ha, scale 0 to 100 (0 no effect, 100 complete control)
[16] = 62 g ai/ha, scale 0 (no effect) to 100 (complete control)
[17] = 125 g ai/ha, scale 0 to 100 (0 no effect, 100 complete control)
[18] = 250 g ai/ha, scale 0 to 100 (0 no effect, 100 complete control)
[19] = Preemergence, 125 g ai/ha, scale 0 to 100

## O=C1NCC(c2ccc(C(F)(F)F)cc2)C1C(=O)Nc1cccc(F)c1F (racemic) [Compound 202]
Kochia [1]; [3]
  Plant response rating, Kochia: 70
Kochia [1]; [4]
  Plant response rating, Kochia: 80
Kochia [1]; Postemergence, 500 g ai/ha
  Kochia plant response rating (0 to 100 scale, 0 is no effect, 100 is complete control): 90
Kochia [1]; [5]
  Plant response rating, Kochia: 80
corn; [6]
  Plant response rating, Corn: 80
corn; 500 g ai/ha
  Corn plant response rating (0 to 100 scale, 0 is no effect, 100 is complete control): 90
ryegrass, Italian; [7]
  Plant response rating, Ryegrass, Italian: 0
ryegrass, Italian; [8]
  Plant response rating, Ryegrass, Italian: 0
ryegrass, Italian; [9]
  Plant response rating, Ryegrass, Italian: 5
ryegrass, Italian; [10]
  Plant response rating, Ryegrass, Italian: 35
ryegrass, Italian; [11]
  Ryegrass, Italian plant response rating: 0
ryegrass, Italian; [12]
  Ryegrass, Italian plant response rating: 30
ryegrass, Italian; [13]
  Plant response rating, Ryegrass, Italian: 30
ryegrass, Italian; Preemergence, 250 g ai/ha
  Plant response rating (scale of 0 to 100), Ryegrass, Italian: 5
johnsongrass; [7]
  Plant response rating, Johnsongrass: 0
johnsongrass; [8]
  Plant response rating, Johnsongrass: 20
johnsongrass; [9]
  Plant response rating, Johnsongrass: 25
johnsongrass; [10]
  Plant response rating, Johnsongrass: 25
johnsongrass; [11]
  Johnsongrass plant response rating: 10
johnsongrass; [12]
  Johnsongrass plant response rating: 60
johnsongrass; [13]
  Plant response rating, Johnsongrass: 70
johnsongrass; Preemergence, 250 g ai/ha
  Plant response rating (scale of 0 to 100), Johnsongrass: 85
morningglory; [7]
  Plant response rating, Morningglory: 5
morningglory; [8]
  Plant response rating, Morningglory: 10
morningglory; [9]
  Plant response rating, Morningglory: 70
morningglory; [10]
  Plant response rating, Morningglory: 10
morningglory; [11]
  Morningglory plant response rating: 15
morningglory; [12]
  Morningglory plant response rating: 25
morningglory; [13]
  Plant response rating, Morningglory: 25
morningglory; Preemergence, 250 g ai/ha
  Plant response rating (scale of 0 to 100), Morningglory: 40
barnyardgrass; [7]
  Plant response rating, Barnyardgrass: 25
barnyardgrass; [8]
  Plant response rating, Barnyardgrass: 65
barnyardgrass; [9]
  Plant response rating, Barnyardgrass: 65
barnyardgrass; [10]
  Plant response rating, Barnyardgrass: 85
barnyardgrass; [11]
  Barnyardgrass plant response rating: 90
barnyardgrass; [14]
  Plant response rating, Barnyardgrass: 90
barnyardgrass; [13]
  Plant response rating, Barnyardgrass: 95
barnyardgrass; Preemergence, 250 g ai/ha
  Plant response rating (scale of 0 to 100; 0 is no effect, 100 is complete control), Barnyardgrass: 95
Kochia [2]; [15]
  Plant response rating, Kochia: 70
Kochia [2]; [16]
  Plant response rating, Kochia: 75
Kochia [2]; [17]
  Plant response rating, Kochia: 80
Kochia [2]; [18]
  Plant response rating, Kochia: 80
chickweed; [15]
  Plant response rating, Chickweed: 80
chickweed; [16]
  Plant response rating, Chickweed: 80
chickweed; [17]
  Plant response rating, Chickweed: 85
chickweed; [18]
  Plant response rating, Chickweed: 85

## O=C1NCC(c2cccc(Br)c2)C1C(=O)Nc1ccc(F)c(F)c1F (stereo not shown) [Compound 310]
Kochia [1]; Postemergence, 125 g ai/ha, visual rating on 0 to 100 scale (0 no effect, 100 complete control), approx. 10 days
  Plant response rating, Kochia: 30
Kochia [1]; Postemergence, 500 g ai/ha, 0 to 100 scale (0 no effect, 100 complete control)
  Plant response rating, Kochia: 30
Kochia [1]; Preemergence, 125 g ai/ha, 0 to 100 scale where 0 is no effect and 100 is complete control
  Plant response rating, Kochia: 30
Kochia [1]; Preemergence, 500 g ai/ha, visual rating on 0 to 100 scale (0 no effect, 100 complete control)
  Kochia plant response rating: 70
corn; 125 g ai/ha, visual rating on 0 to 100 scale (0 no effect, 100 complete control), approx. 10 days
  Plant response rating, Corn: 20
corn; 500 g ai/ha, 0 to 100 scale (0 no effect, 100 complete control)
  Plant response rating, Corn: 50
ryegrass, Italian; [7]
  Plant response rating, Ryegrass, Italian: 0
ryegrass, Italian; [8]
  Plant response rating, Ryegrass, Italian: 0
ryegrass, Italian; [9]
  Plant response rating, Ryegrass, Italian: 0
ryegrass, Italian; [10]
  Plant response rating, Ryegrass, Italian: 5
ryegrass, Italian; [12]
  Ryegrass, Italian plant response rating: 0
ryegrass, Italian; [19]
  Plant response rating, Ryegrass, Italian: 20
ryegrass, Italian; Preemergence, 250 g ai/ha
  Plant response rating (scale of 0 to 100), Ryegrass, Italian: 25
johnsongrass; [7]
  Plant response rating, Johnsongrass: 0
johnsongrass; [8]
  Plant response rating, Johnsongrass: 0
johnsongrass; [9]
  Plant response rating, Johnsongrass: 0
johnsongrass; [10]
  Plant response rating, Johnsongrass: 5
johnsongrass; [11]
  Johnsongrass plant response rating: 0
johnsongrass; [12]
  Johnsongrass plant response rating: 0
johnsongrass; [19]
  Plant response rating, Johnsongrass: 45
johnsongrass; Preemergence, 250 g ai/ha
  Plant response rating (scale of 0 to 100), Johnsongrass: 75
morningglory; [7]
  Plant response rating, Morningglory: 10
morningglory; [8]
  Plant response rating, Morningglory: 0
morningglory; [9]
  Plant response rating, Morningglory: 10
morningglory; [10]
  Plant response rating, Morningglory: 70
morningglory; [11]
  Morningglory plant response rating: 0
morningglory; [12]
  Morningglory plant response rating: 0
morningglory; [19]
  Plant response rating, Morningglory: 5
morningglory; Preemergence, 250 g ai/ha
  Plant response rating (scale of 0 to 100), Morningglory: 5
barnyardgrass; [7]
  Plant response rating, Barnyardgrass: 5
barnyardgrass; [8]
  Plant response rating, Barnyardgrass: 25
barnyardgrass; [9]
  Plant response rating, Barnyardgrass: 50
barnyardgrass; [10]
  Plant response rating, Barnyardgrass: 75
barnyardgrass; [11]
  Barnyardgrass plant response rating: 50
barnyardgrass; [12]
  Barnyardgrass plant response rating: 90
barnyardgrass; [13]
  Plant response rating, Barnyardgrass: 90
barnyardgrass; Preemergence, 250 g ai/ha
  Plant response rating (scale of 0 to 100; 0 is no effect, 100 is complete control), Barnyardgrass: 95
Kochia [2]; [15]
  Plant response rating, Kochia: 40
Kochia [2]; [16]
  Plant response rating, Kochia: 50
Kochia [2]; [18]
  Plant response rating, Kochia: 80
chickweed; [15]
  Plant response rating, Chickweed: 20
chickweed; [16]
  Plant response rating, Chickweed: 45
chickweed; [17]
  Plant response rating, Chickweed: 90
chickweed; [18]
  Plant response rating, Chickweed: 85

## O=C1NCC(c2cccc(OC(F)F)c2)C1C(=O)Nc1cccc(F)c1F (stereo not shown) [Compound 224]
Kochia [1]; [3]
  Plant response rating, Kochia: 80
Kochia [1]; [4]
  Plant response rating, Kochia: 80
Kochia [1]; Postemergence, 500 g ai/ha
  Kochia plant response rating (0 to 100 scale, 0 is no effect, 100 is complete control): 90
Kochia [1]; [5]
  Plant response rating, Kochia: 90
corn; [6]
  Plant response rating, Corn: 60
corn; 500 g ai/ha
  Corn plant response rating (0 to 100 scale, 0 is no effect, 100 is complete control): 80
ryegrass, Italian; [7]
  Plant response rating, Ryegrass, Italian: 0
ryegrass, Italian; [8]
  Plant response rating, Ryegrass, Italian: 0
ryegrass, Italian; [9]
  Plant response rating, Ryegrass, Italian: 5
ryegrass, Italian; [10]
  Plant response rating, Ryegrass, Italian: 5
ryegrass, Italian; [11]
  Ryegrass, Italian plant response rating: 0
ryegrass, Italian; [12]
  Ryegrass, Italian plant response rating: 0
ryegrass, Italian; [13]
  Plant response rating, Ryegrass, Italian: 0
ryegrass, Italian; Preemergence, 250 g ai/ha
  Plant response rating (scale of 0 to 100), Ryegrass, Italian: 15
johnsongrass; [7]
  Plant response rating, Johnsongrass: 0
johnsongrass; [8]
  Plant response rating, Johnsongrass: 0
johnsongrass; [9]
  Plant response rating, Johnsongrass: 15
johnsongrass; [10]
  Plant response rating, Johnsongrass: 25
johnsongrass; [11]
  Johnsongrass plant response rating: 0
johnsongrass; [12]
  Johnsongrass plant response rating: 35
johnsongrass; [13]
  Plant response rating, Johnsongrass: 75
johnsongrass; Preemergence, 250 g ai/ha
  Plant response rating (scale of 0 to 100), Johnsongrass: 85
morningglory; [7]
  Plant response rating, Morningglory: 5
morningglory; [8]
  Plant response rating, Morningglory: 5
morningglory; [9]
  Plant response rating, Morningglory: 35
morningglory; [10]
  Plant response rating, Morningglory: 35
morningglory; [11]
  Morningglory plant response rating: 5
morningglory; [12]
  Morningglory plant response rating: 25
morningglory; [13]
  Plant response rating, Morningglory: 5
morningglory; Preemergence, 250 g ai/ha
  Plant response rating (scale of 0 to 100), Morningglory: 30
barnyardgrass; [7]
  Plant response rating, Barnyardgrass: 0
barnyardgrass; [8]
  Plant response rating, Barnyardgrass: 30
barnyardgrass; [9]
  Plant response rating, Barnyardgrass: 50
barnyardgrass; [10]
  Plant response rating, Barnyardgrass: 75
barnyardgrass; [11]
  Barnyardgrass plant response rating: 75
barnyardgrass; [14]
  Plant response rating, Barnyardgrass: 85
barnyardgrass; [13]
  Plant response rating, Barnyardgrass: 90
barnyardgrass; Preemergence, 250 g ai/ha
  Plant response rating (scale of 0 to 100; 0 is no effect, 100 is complete control), Barnyardgrass: 95
Kochia [2]; [15]
  Plant response rating, Kochia: 0
Kochia [2]; [16]
  Plant response rating, Kochia: 40
Kochia [2]; [17]
  Plant response rating, Kochia: 50
Kochia [2]; [18]
  Plant response rating, Kochia: 70
chickweed; [15]
  Plant response rating, Chickweed: 70
chickweed; [16]
  Plant response rating, Chickweed: 70
chickweed; [17]
  Plant response rating, Chickweed: 70
chickweed; [18]
  Plant response rating, Chickweed: 85

— patent US10294202B2, “Pyrrolidinones as herbicides” (FMC Corporation, priority 2013, dated 2019)
